Experimental data reported in patent US20240238242A1, “EGCG buccal tablet and use thereof” (priority 2023, published 2024).
Several values for one entry are separate records, joined by “and”; a condition that tells them apart may be missing. Equal entries are not always repeated. Where two headings read alike, the source gives them in different places.

Legend:
[1] = system: Influenza A H1N1 virus (H1N1-PR8); format: cell-based; conditions: for inactivation efficiency against the virus: single experiment; for average inactivation efficiency against virus: three experiments
SARS-CoV-2 Omicron BA.2 = system: SARS-CoV-2 Omicron BA.2; parameters: species or system BALB/c mice; conditions: mouse, in vivo
[2] = 1 mM EGCG, PR8 virus, 5 minutes
[3] = 5 mM EGCG, PR8 virus, 5 minutes

For O=C(O[C@@H]1Cc2c(O)cc(O)cc2O[C@@H]1c1cc(O)c(O)c(O)c1)c1cc(O)c(O)c(O)c1 [EGCG, Epigallocatechin gallate], the “CPE test (virus replication in the cell wells)” value ([1]; 1 mM EGCG + PR8 virus, co-incubated 5 minutes, first experiment, dilution factor 10^5, wells 1-10) was “+”, the “CPE test (virus replication in the cell wells)” value ([1]; 1 mM EGCG + virus, PR8, 1 minute, first experiment, dilution factor 10^3, wells 1-10) was “+” and the “CPE test (virus replication in the cell wells)” value ([1]; 1 mM EGCG + virus, PR8, 1 minute, first experiment, dilution factor 10^4, wells 1-10) was “+”. The “CPE test (virus replication in the cell wells)” value ([1]; 1 mM EGCG + virus, PR8, 1 minute, first experiment, dilution factor 10^5, wells 1-10) was “+”, the “CPE test (virus replication in the cell wells)” value ([1]; 1 mM EGCG + virus, PR8, 1 minute, first experiment, dilution factor 10^6, wells 1-10) was “+ and −” and the “CPE test (virus replication in the cell wells)” value ([1]; 1 mM EGCG + virus, PR8, 1 minute, first experiment, dilution factor 10^7, wells 1-10) was “−”. For the same molecule, the “CPE test (virus replication in the cell wells)” value ([1]; 1 mM EGCG + virus, PR8, 1 minute, first experiment, dilution factor 10^8, wells 1-10) was “−”, the “CPE test (virus replication in the cell wells)” value ([1]; 1 mM EGCG + virus, PR8, 1 minute, second experiment, dilution factor 10^1, wells 1-10) was “+” and the “CPE test (virus replication in the cell wells)” value ([1]; 1 mM EGCG + virus, PR8, 1 minute, second experiment, dilution factor 10^2, wells 1-10) was “+”. For the same molecule, the “CPE test (virus replication in the cell wells)” value ([1]; 1 mM EGCG + virus, PR8, 1 minute, second experiment, dilution factor 10^3, wells 1-10) was “+”, the “CPE test (virus replication in the cell wells)” value ([1]; 1 mM EGCG + virus, PR8, 1 minute, second experiment, dilution factor 10^4, wells 1-10) was “+” and the “CPE test (virus replication in the cell wells)” value ([1]; 1 mM EGCG + virus, PR8, 1 minute, second experiment, dilution factor 10^5, wells 1-10) was “+”. For the same molecule, the “CPE test (virus replication in the cell wells)” value ([1]; 1 mM EGCG + virus, PR8, 1 minute, second experiment, dilution factor 10^6, wells 1-10) was “− and +”, the “CPE test (virus replication in the cell wells)” value ([1]; 1 mM EGCG + virus, PR8, 1 minute, second experiment, dilution factor 10^7, wells 1-10) was “−” and the “CPE test (virus replication in the cell wells)” value ([1]; 1 mM EGCG + virus, PR8, 1 minute, second experiment, dilution factor 10^8, wells 1-10) was “−”. The “inactivation efficiency against the virus” value ([1]; 1 mM EGCG, PR8 virus, 1 minute) was 87.41% and 80.05%, the “average inactivation efficiency against virus” value (shortened to “average inactivation efficiency”) ([1]; 1 mM EGCG, PR8 virus, 1 minute) was 82.50% and the “inactivation efficiency against the virus” value [1, 2] was 87.41% and 84.15% and 90.00%. For the same molecule, the “average inactivation efficiency” value [1, 2] was 87.19%, the “CPE test, virus replication in cell wells (wells 1-10)” value (from here on “CPE test, virus replication”) ([1]; 5 mM EGCG + PR8 virus, 5 minutes, third experiment, dilution factor 10^4) was “+ and −” and the “CPE test, virus replication” value ([1]; 5 mM EGCG + PR8 virus, 5 minutes, third experiment, dilution factor 10^5) was “− and +”. The “CPE test, virus replication” value ([1]; 5 mM EGCG + PR8 virus, 5 minutes, third experiment, dilution factor 10^6) was “−”, the “CPE test, virus replication” value ([1]; 5 mM EGCG + PR8 virus, 5 minutes, third experiment, dilution factor 10^7) was “−” and the “CPE test, virus replication” value ([1]; 5 mM EGCG + PR8 virus, 5 minutes, third experiment, dilution factor 10^8) was “−”. For the same molecule, the “CPE test (virus replication in the cell wells)” value ([1]; 5 mM EGCG + PR8 virus, co-incubated 1 minute, third experiment, dilution factor 10^4, wells 1-10) was “+”, the “CPE test (virus replication in the cell wells)” value ([1]; 5 mM EGCG + PR8 virus, co-incubated 1 minute, third experiment, dilution factor 10^5, wells 1-10) was “+ and −” and the “CPE test (virus replication in the cell wells)” value ([1]; 5 mM EGCG + PR8 virus, co-incubated 1 minute, third experiment, dilution factor 10^6, wells 1-10) was “− and +”. The “CPE test (virus replication in the cell wells)” value ([1]; 5 mM EGCG + PR8 virus, co-incubated 1 minute, third experiment, dilution factor 10^7, wells 1-10) was “−”, the “CPE test (virus replication in the cell wells)” value ([1]; 5 mM EGCG + PR8 virus, co-incubated 1 minute, third experiment, dilution factor 10^8, wells 1-10) was “−” and the “CPE test (virus replication in the cell wells)” value ([1]; 5 mM EGCG + PR8 virus, co-incubated 5 minutes, first experiment, dilution factor 10^4, wells 1-10) was “−”. For the same molecule, the “CPE test (virus replication in the cell wells)” value ([1]; 5 mM EGCG + PR8 virus, co-incubated 5 minutes, first experiment, dilution factor 10^5, wells 1-10) was “−”, the “CPE test (virus replication in the cell wells)” value ([1]; 5 mM EGCG + PR8 virus, co-incubated 5 minutes, first experiment, dilution factor 10^6, wells 1-10) was “−” and the “CPE test (virus replication in the cell wells)” value ([1]; 5 mM EGCG + PR8 virus, co-incubated 5 minutes, first experiment, dilution factor 10^7, wells 1-10) was “−”. For the same molecule, the “CPE test (virus replication in the cell wells)” value ([1]; 5 mM EGCG + PR8 virus, co-incubated 5 minutes, first experiment, dilution factor 10^8, wells 1-10) was “−”, the “CPE test (virus replication in the cell wells)” value ([1]; 5 mM EGCG + virus, PR8, 1 minute, first experiment, dilution factor 10^4, wells 1-10) was “+ and −” and the “CPE test (virus replication in the cell wells)” value ([1]; 5 mM EGCG + virus, PR8, 1 minute, first experiment, dilution factor 10^5, wells 1-10) was “− and +”. The “CPE test (virus replication in the cell wells)” value ([1]; 5 mM EGCG + virus, PR8, 1 minute, first experiment, dilution factor 10^6, wells 1-10) was “−”, the “CPE test (virus replication in the cell wells)” value ([1]; 5 mM EGCG + virus, PR8, 1 minute, first experiment, dilution factor 10^7, wells 1-10) was “−” and the “CPE test (virus replication in the cell wells)” value ([1]; 5 mM EGCG + virus, PR8, 1 minute, first experiment, dilution factor 10^8, wells 1-10) was “−”. The “CPE test (virus replication in the cell wells)” value ([1]; 5 mM EGCG + virus, PR8, 1 minute, second experiment, dilution factor 10^4, wells 1-10) was “− and +”, the “CPE test (virus replication in the cell wells)” value ([1]; 5 mM EGCG + virus, PR8, 1 minute, second experiment, dilution factor 10^5, wells 1-10) was “− and +” and the “CPE test (virus replication in the cell wells)” value ([1]; 5 mM EGCG + virus, PR8, 1 minute, second experiment, dilution factor 10^6, wells 1-10) was “−”. For the same molecule, the “CPE test (virus replication in the cell wells)” value ([1]; 5 mM EGCG + virus, PR8, 1 minute, second experiment, dilution factor 10^7, wells 1-10) was “−”, the “CPE test (virus replication in the cell wells)” value ([1]; 5 mM EGCG + virus, PR8, 1 minute, second experiment, dilution factor 10^8, wells 1-10) was “−” and the “inactivation efficiency against the virus” value ([1]; 5 mM EGCG, PR8 virus, 1 minute) was 99.50% and 99.60% and 93.69%. The “average inactivation efficiency” value ([1]; 5 mM EGCG, PR8 virus, 1 minute) was 97.60%, the “residual virus titer of EGCG+virus group (Karber method)” value [1, 3] was 10^4 TCID50/50 μL and the “inactivation efficiency against the virus” value [1, 3] was 99.92% and 99.75% and 99.60%. For the same molecule, the “average inactivation efficiency” value [1, 3] was 99.76% and the “nucleic acid loads of SARS-CoV-2 Omicron BA.2 in lungs and turbinates” value (SARS-CoV-2 Omicron BA.2) was “significantly reduced”.
